What all share (format): biochemical
In test [1] the test system is λ phage DNA. Briefly: Zymo Quick-DNA/RNA MagBead extraction with air dry replaced by TPW, LAMP. The settings on record: 10× dilution of eluent into LAMP. As to the method: LAMP reactions contained the following concentrations of reagents: 1× Isothermal Amplification Buffer (20 mM Tris-HCl pH 8.8, 10 mM (NH4)2SO4, 50 mM KCl, 5 mM MgSO4, 0.1% Tween-20, B0537S, NEB, Ipswich, Mass., USA), an additional 2 mM MgSO4 (B1003S, NEB), 1.4 mM deoxynucleotide mix (N0447L or N0446S, NEB), […] Invitrogen Syto-9 (S34854, Thermo Fisher Scientific), […] Invitrogen bovine serum albumin (15561020, Thermo Fisher Scientific), 320 U/mL WarmStart Bst 2.0 (M0538L, NEB), and were supplemented with nuclease-free water (not DEPC-Treated, 4387936, Thermo Fisher Scientific) up to 10 μL. LAMP primers (Integrated DNA Technologies (IDT), Coralville, Iowa, USA) were designed, ordered, and added at NEB's recommended concentrations of […] FIP/BIP, 0.2μM F3/B3, and […] LoopF/B.
Each 96-well plate was sealed and briefly spun. Heating and real-time imaging were performed on the Bio-Rad CFX-96 Touch Real-Time PCR Detection System (1855195, Bio-Rad). Each 96-well plate was cooled to 12° C. for 2 min, held at 68° C. for 47 min with 35-second fluorescence read intervals, and a melt-curve analysis was performed. For the E. coli DNA dilution experiment, the 68° C. step was held for 105 min. Time-to-positive (TTP) was determined when the software's automated baseline corrected fluorescence reached 1000 RFU.
The Zymo Quick-DNA/RNA Viral MagBead (R2140) was tested. […]

For test [2], the system named is λ phage DNA. Briefly: Zymo Quick-DNA/RNA MagBead extraction with air dry replaced by TPW, qPCR. The settings on record: 10× dilution of eluent into qPCR. As to the method:
(§1) qPCR reactions contained 1× Bio-Rad SsoFast Supermix (1725201, Bio-Rad), PCR primers (IDT) at […] each, and were supplemented with nuclease-free water up to 10 μL. Each 96-well plate (thin-wall clear well, HSP9641, Bio-Rad) was sealed (Microseal B, MSB1001, Bio-Rad) and briefly spun in a Mini Plate Spinner Centrifuge (14-100-141, Fisher Scientific). Heating and real-time imaging were performed on the Bio-Rad CFX-96 Touch Real-Time PCR Detection System by heating to 95° C. for 5 min, cycling 40 times between 95° C. for 15 s, 60° C. for 15 s, and 72° C. for 20 s, and taking a melt-curve analysis. For the E. coli DNA dilution experiment, qPCR was run for 60 cycles. Fluorescence readings were taken at the end of each extension step. Quantification cycle (Cq) was determined when the software's automated baseline corrected fluorescence reached 200 RFU.
The Zymo Quick-DNA/RNA Viral MagBead (R2140) was tested. For the Zymo MagBead kit, 200 μL sample was mixed with 200 μL Zymo 2×DNA/RNA Shield, 4 μL Proteinase K, and 800 μL Zymo Viral DNA/RNA Buffer. 1204 μL was added to each tube, mixed with 20 μL MagBinding Beads, and placed on an UltraRocker Rocking Platform (1660709EDU, Bio-Rad, Hercules, Calif., USA) for 10 min at max speed. Tubes were transferred to a DynaMag-2 magnetic rack (12321D, Thermo Fisher Scientific) and manufacturer instructions was followed for the remainder of the protocol. […]

Test [3] deals with qPCR spiked with 5×104 copies λ phage DNA. Briefly: qPCR reaction inhibition by dilutions of NA extraction kit buffers. The settings on record: for Avg Cq: 9 replicates, non-detects assigned 40 cycles. As for the experimental part:
as §1
Confidence intervals were calculated assuming the populations to be normally distributed and using a t statistic. For buffer inhibition experiments, statistical analysis was performed by a 1-tailed unequal variance t-test (N=9) comparing the water condition (control) to each buffer concentration (H1: the mean is delayed). For the subsequent experiments, a 2-tailed unequal variance t-test (H1: the means are different) was used. Non-detects were assigned the maximum possible Cq measurement of 40 cycles or a TTP of 46.7 min to indicate the lack of amplification. Although this approach introduces some bias into the analysis, it is believed this is the best representation for handling non-detects (other alternatives include excluding the non-detects or assigning non-detect values to the average of those that amplified).
These two commercial kits in particular were chosen because they both utilize minimal protocols (lysis, wash, elute) with no added steps (e.g. bacterial pellet spins, proteinase K, lysozyme, DNase/RNase, filtration, etc.). Specifically, an experiment was conducted to identify the concentration at which each buffer inhibits qPCR and LAMP. First, buffers were added at half-log dilutions (from 10% down to 0.032%) into λ phage spiked qPCR or LAMP reactions (1 μL diluted buffer, 1 μL template, 8 μL reaction mix).
On the technique in general: In qPCR the cycle at which signal appears reflects the starting amount.

SMILES strings stand for the structures.

Consider `CCCCCCCCCCCO` [1-undecanol], for which the TTP improvement in test [1] is recorded as 0.7 min. Further, in test [2], the “cycle delay vs manufacturer protocol” value was 1.1 cycle.
As to `CCO` [Ethanol, ethanol], the “Avg Cq” value was 20.1 cycles in test [3] (0.03% buffer in qPCR); 20.2 cycles in test [3] (0.1% buffer in qPCR); 20.2 cycles in test [3] (0.32% buffer in qPCR); 20.1 cycles in test [3] (1% buffer in qPCR); 20.6 cycles in test [3] (3.2% buffer in qPCR); 27.5 cycles in test [3] (10% buffer in qPCR). The ΔCq is reported as 0.0 cycles in test [3] (0.03% buffer vs water condition (0%)); 0.1 cycles in test [3] (0.1% buffer vs water condition (0%)); 0.1 cycles in test [3] (0.32% buffer vs water condition (0%)); 0.0 cycles in test [3] (1% buffer vs water condition (0%)); 0.5 cycles in test [3] (3.2% buffer vs water condition (0%)); 7.4 cycles in test [3] (10% buffer vs water condition (0%)).

The values are drawn from patent publication US11866695B2, “Methods and systems and related compositions for mixtures separation with a solid matrix” (CALIFORNIA INSTITUTE OF TECHNOLOGY, priority 2019, dated 2024).
